From patent publication US9718762B2, “Insecticidal compounds” (Syngenta Participations AG, priority 2013, dated 2017)

Tests used:
Assay type in all cases: in vivo
Diabrotica balteata = Diabrotica balteata (corn root worm) artificial diet test; conditions: 120 h, 200 ppm (concentration in well 18 ppm), L2 larvae, 5 days, larval mortality, growth regulation
Description: (§1) Diabrotica balteata (Corn Root Worm): A 24-well microtiter plate (MTP) with artificial diet was treated with test solutions at an application rate of 200 ppm (concentration in well 18 ppm) by pipetting. After drying, the MTP's were infested with L2 larvae (6-10 per well). After an incubation period of 5 days, samples were checked for larval mortality and growth regulation.

Plutella xylostella = Plutella xylostella (diamond back moth) artificial diet test; conditions: 144 h, 200 ppm (concentration in well 18 ppm), L2 larvae, 6 days, larval mortality, growth regulation
Description: as §1, with “Plutella xylostella (Diamond Back Moth):” for “Diabrotica balteata (Corn Root Worm): A”, “(7-12” for “(6-10”, “6” for “5”

Spodoptera littoralis = Spodoptera littoralis (Egyptian cotton leafworm) cotton leaf disc spray test; conditions: foliar, 72 h, 200 ppm spray on cotton leaf discs, L1 larvae, 3 days after treatment, mortality, feeding behavior, growth regulation
From the text: Spodoptera littoralis (Egyptian Cotton Leafworm): Cotton leaf discs were placed on agar in a 24-well microtiter plate and sprayed with test solutions at an application rate of 200 ppm. After drying, the leaf discs were infested with 5 L1 larvae. The samples were checked for mortality, feeding behavior, and growth regulation 3 days after treatment (DAT).

Heliothis virescens = Heliothis virescens (tobacco budworm) egg test on artificial diet; conditions: 96 h, 200 ppm (concentration in well 18 ppm), eggs on artificial diet, 4 days, egg mortality, larval mortality, growth regulation
Description: Heliothis virescens (Tobacco Budworm): Eggs (0-24 h old) were placed in 24-well microtiter plate on artificial diet and treated with test solutions at an application rate of 200 ppm (concentration in well 18 ppm) by pipetting. After an incubation period of 4 days, samples were checked for egg mortality, larval mortality, and growth regulation.

Thrips tabaci = Thrips tabaci (onion thrips) sunflower leaf disc spray test; conditions: foliar, 168 h, 200 ppm spray on sunflower leaf discs, population of mixed ages, 7 days, mortality
Description: (§2) Thrips tabaci (Onion Thrips): Sunflower leaf discs were placed on agar in a 24-well microtiter plate and sprayed with test solutions at an application rate of 200 ppm. After drying, the leaf discs were infested with an […] population of mixed ages. After an incubation period of 7 days, samples were checked for mortality.

Myzus persicae = Myzus persicae (green peach aphid) sunflower leaf disc spray test; conditions: foliar, 144 h, 200 ppm spray on sunflower leaf discs, aphid population of mixed ages, 6 DAT, mortality
Description: as §2, with “Myzus persicae (Green Peach Aphid):” for “Thrips tabaci (Onion Thrips):”, “6 DAT,” for “7 days,”

Tetranychus urticae = Tetranychus urticae (two-spotted spider mite) bean leaf disc spray test; conditions: foliar, 192 h, 200 ppm spray on bean leaf discs, mite populations of mixed ages, 8 days, egg, larval and adult mortality
From the text: Tetranychus urticae (Two-Spotted Spider Mite): Bean leaf discs on agar in 24-well microtiter plates were sprayed with test solutions at an application rate of 200 ppm. After drying, the leaf discs are infested with mite populations of mixed ages. 8 days later, discs are checked for egg mortality, larval mortality, and adult mortality.

Measured: pest or weed control at 200 ppm

CCN(C(=O)c1ccc(C#N)cc1)c1cccc(C(=O)Nc2c(Cl)cc(C(F)(C(F)(F)F)C(F)(F)F)cc2Br)c1OC [Compound 1, N-[2-bromo-6-chloro-4-[1,1,1,2,3,3,3-heptafluoro-prop-2-yl]phenyl]-3-[(4-cyanobenzoyl)-ethyl-amino]-2-methoxy-benzamide]
≥ 80%: all assays above

CCN(C(=O)c1ccc(C#N)cc1)c1cccc(C(=O)Nc2c(Cl)cc(C(F)(C(F)(F)F)C(F)(F)F)cc2Cl)c1OC [Compound 2]
≥ 80%: all assays above

CCc1cc(C(F)(C(F)(F)F)C(F)(F)F)cc(C)c1NC(=O)c1cccc(N(CC)C(=O)c2ccc(C#N)cc2)c1OC [Compound 3]
≥ 80%: all assays above

COc1c(C(=O)Nc2c(Cl)cc(C(F)(C(F)(F)F)C(F)(F)F)cc2Br)cccc1N(C)C(=O)c1ccc(C#N)cc1 [Compound 4]
≥ 80%: all assays above

CCN(C(=O)c1ccc(C#N)cc1)c1cccc(C(=O)Nc2c(Br)cc(C(F)(C(F)(F)F)C(F)(F)F)cc2Br)c1OC [Compound 5]
≥ 80%: all assays above

COc1c(C(=O)Nc2c(Br)cc(C(F)(C(F)(F)F)C(F)(F)F)cc2Br)cccc1N(C)C(=O)c1ccc(C#N)cc1 [Compound 6]
≥ 80%: all assays above

COc1c(C(=O)Nc2c(Cl)cc(C(F)(C(F)(F)F)C(F)(F)F)cc2Cl)cccc1N(C)C(=O)c1ccc(C#N)cc1 [Compound 7]
≥ 80%: all assays above

CCc1cc(C(F)(C(F)(F)F)C(F)(F)F)cc(Br)c1NC(=O)c1cccc(N(CC)C(=O)c2ccc(C#N)cc2)c1 [Compound 8]
not listed: Spodoptera littoralis
≥ 80%: all other assays above

CCc1cc(C(F)(C(F)(F)F)C(F)(F)F)cc(CC)c1NC(=O)c1cccc(N(CC)C(=O)c2ccc(C#N)cc2)c1OC [Compound 9]
≥ 80%: all assays above

CCc1cc(C(F)(C(F)(F)F)C(F)(F)F)cc(Br)c1NC(=O)c1cccc(N(C)C(=O)c2ccc(C#N)cc2)c1OC [Compound 10]
≥ 80%: all assays above

CCc1cc(C(F)(C(F)(F)F)C(F)(F)F)cc(Cl)c1NC(=O)c1cccc(N(C)C(=O)c2ccc(C#N)cc2)c1OC [Compound 11]
≥ 80%: all assays above

CCc1cc(C(F)(C(F)(F)F)C(F)(F)F)cc(Cl)c1NC(=O)c1cccc(N(CC)C(=O)c2ccc(C#N)cc2)c1OC [Compound 12]
≥ 80%: all assays above
